According to PMC4791597 (Scientific Reports, 2016):

Molecular target: T1, PrP^C (cellular prion protein) (Mus musculus, UniProt P04925)
T1 construct: gene Prnp
Assay type: binding

T1 sequence (P04925 23-230 limits assumed): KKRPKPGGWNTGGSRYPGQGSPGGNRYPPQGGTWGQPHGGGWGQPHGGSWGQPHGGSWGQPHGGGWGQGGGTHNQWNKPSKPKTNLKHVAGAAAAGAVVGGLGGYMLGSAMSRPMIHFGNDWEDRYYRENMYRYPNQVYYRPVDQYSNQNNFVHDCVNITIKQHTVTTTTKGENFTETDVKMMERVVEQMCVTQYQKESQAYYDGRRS

## C[n+]1ccc(C2=C3C=CC(=N3)C(c3cc[n+](C)cc3)=c3ccc4[n]3[Fe+][n]3c2ccc3C(c2cc[n+](C)cc2)=C2C=CC(=N2)C=4c2cc[n+](C)cc2)cc1 [Fe(III)-TMPyP]
  Kd: 1210 nM
